Assay results from patent US20250051391A1, “PEPTIDE INHIBITORS AND METHODS FOR INHIBITING PROTEIN AGGREGATION IN NEURONS AND NEURODEGENERATIVE DISEASES” (THE GOVERNING COUNCIL OF THE UNIVERSITY OF TORONTO, priority 2021, published 2025).
Ends that are not written are not given here.

Experiments:
WT a-syn oligomers = test: Split luciferase a-syn oligomer/aggregation assay; format: cell-based, human; details: cells stably expressing split luciferase WT a-syn constructs; GFP-peptide plasmids
Experimental: tet-off cells stably expressing split luciferase a-syn constructs were trypsinized from subconfluent culture and seeded in a 96-well plate at a density of 15,000 cells per well. Cells were incubated overnight at 37° C. in 5% CO2. […] After 6 h of incubation, 20 μL of cell medium was transferred to a black flat-bottomed 96-well plate. 50 μL of Working solution (Pierce Gaussia-Firefly Luciferase Dual Assay Kit, Thermo Scientific #16181) was added into each well containing cell medium. Immediately after adding the reagent, samples were read using a luminometer with a 480 nm filter.

A53T a-syn = test: a-syn protein levels by immunoblot in HEK293 cells; format: cell-based, human; details: HEK293 cells expressing A53T a-syn
Experimental: Infected or transfected cells were scraped from 6-well dishes and lysed with lysis buffer (50 mM Tris-HCl pH7.4, 1% Nonidet P-40, 150 mM NaCl, 1 mM EDTA, 1× protease inhibitor mixture (Sigma)) for 30 min at 4° C. The insoluble pellet was removed following a 10,000 rpm spin for 5 minutes at 4° C. Lysates were analyzed by SDS-PAGE/immunoblot using 4-20% Mini-PROTEAN Tris-glycine gels (Bio-Rad) transferred to PVDF membranes and blocked in 5% milk containing PBS-Tween-20 (0.1%) for 1 h. PVDF membranes were then incubated with specified primary antibodies followed by incubation with horseradish peroxidase-conjugated secondary antibodies (Santa Cruz Biotechnology) and detected using enhanced chemiluminescence (GE Healthcare).

a-syn-CHMP2B interaction = target: T1, a-syn-CHMP2B interaction (Homo sapiens, UniProt Q9UQN3); test: Co-immunoprecipitation: disruption of CHMP2B-A53T a-syn interaction; format: cell-based; details: HEK293 cells; Flag-CHMP2B, HA-tagged A53T a-syn, GFP-tagged peptides
T1 construct: expressed in transfected cells; host or cells: HEK293T
Experimental: (§1) HEK293T cells were co-transfected with Flag-tagged target protein, HA-tagged source protein, and GFP-tagged peptide or GFP. Cells were lysed 48 h after transfections with radioimmune precipitation assay buffer (50 mM Tris-HCl pH7.4, 1% Nonidet P-40, 150 mM NaCl, 1 mM EDTA, 10 mM Na3VO4, 10 mM sodium pyrophosphate, 25 mM NaF, 1× protease inhibitor mixture (Sigma)) for 30 min at 4° C. and coimmunoprecipitated with Flag beads (Clontech). The resulting immunocomplexes were analyzed by immunoblot using the appropriate antibodies. Protein samples were separated using 4-20% Mini-PROTEAN Tris-glycine gels (Bio-Rad) transferred to PVDF membranes and blocked in 5% milk containing PBS-Tween-20 (0.1%) for 1 h. PVDF membranes were then incubated with specified primary antibodies followed by incubation with horseradish peroxidase-conjugated secondary antibodies (Santa Cruz Biotechnology) and detected using enhanced chemiluminescence (GE Healthcare).

Flag-CHMP2B = target: T2, Flag-CHMP2B (Homo sapiens, UniProt Q9UQN3); test: Flag co-immunoprecipitation of GFP-peptides with Flag-CHMP2B; format: binding; details: GFP-tagged peptides in HEK293T cells
T2 construct: expressed in transfected cells; host or cells: HEK293T
Experimental: as §1

[1] = tested on: HEK293 cells overexpressing WT or A53T a-syn; test: Cell Titer-Glo cell viability assay in a-syn expressing cells; format: cell-based, human; details: for cell viability / cytoprotective effect: HEK293 cells overexpressing WT or A53T a-syn, with or without MG132, expressed GFP-peptide or protein
Experimental: Oligonucleotides encoding the specific peptides were synthesized and individually cloned into the pLJM1 nGFP lentiviral vector. Cells were infected with individual constructs, and cell viability was assessed using Cell Titer-Glo Luminescent assay (Promega) at 72 h post infection.
Cells were trypsinized from subconfluent cultures as described earlier, suspended in culture media, and then seeded into triplicate wells of a 96-well plate (100 μl well/1) at a density of 1.5×10^4 cells per well at standard culture conditions of 5% CO2 in air at 37° C. Cells were infected with lentivirus expressing peptide at an MOI of 5 for 72 h or transfected with plasmid for 72 h. Cell Titer-Glo reagent was added to each well (30 μL), according to the manufacturer's protocol and […].

T2 sequence (Q9UQN3 whole entry): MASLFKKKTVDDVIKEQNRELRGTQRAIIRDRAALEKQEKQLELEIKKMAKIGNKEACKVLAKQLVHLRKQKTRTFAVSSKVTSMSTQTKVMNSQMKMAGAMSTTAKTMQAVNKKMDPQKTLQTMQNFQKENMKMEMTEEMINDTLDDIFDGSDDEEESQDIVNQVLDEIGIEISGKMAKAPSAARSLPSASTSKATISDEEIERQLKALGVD
T1 sequence (Q9UQN3 whole entry): as above

Substance: DEEIERQLKALG [PDpep1.3]
- a-syn oligomers measured by luciferase activity (WT a-syn oligomers): most prominent effects
- a-syn protein levels by immunoblot (A53T a-syn): reduction in a-syn levels
- disruption of a-syn-CHMP2B interaction (co-immunoprecipitation) (a-syn-CHMP2B interaction): most prominent disruption
- interaction with Flag-CHMP2B (co-immunoprecipitation) (Flag-CHMP2B): interacted with Flag-CHMP2B
- interaction with Flag-CHMP2B (co-immunoprecipitation) (Flag-CHMP2B; listed as Pdpep1.3): binds to CHMP2B
- cell viability / cytoprotective effect [1]: most prominent effects on cell survival
- effect on cell viability under p62 knockdown ([1]; HEK293 cells stably expressing p62 shRNA): not significantly affected
- cytoprotective effect under shRNA knockdown of CHMP2B, VPS4A and/or VPS4B ([1]; cells stably expressing shRNAs): prevented by CHMP2B knockdown, but not by knockdown of VPS4A and/or VPS4B

Substance: IPIQLKA [PDpep1, top hit of all screens; maps to CHMP2B residues 203-209]
- a-syn oligomers measured by luciferase activity (WT a-syn oligomers): reduce WT a-syn oligomers
- a-syn protein levels by immunoblot (A53T a-syn): reduction in a-syn levels
- disruption of a-syn-CHMP2B interaction (co-immunoprecipitation) (a-syn-CHMP2B interaction): disrupted the a-syn-CHMP2B interaction
- interaction with Flag-CHMP2B (co-immunoprecipitation) (Flag-CHMP2B): interacted with Flag-CHMP2B
- cell viability / cytoprotective effect [1]: cytoprotective effects
